Data: article PMC7503831 (Molecules, 2020)
“Also recorded” adds a separate entry of the source. Like-named read-outs stand apart in the source and are kept apart here. Marks after values point to notes of the source that are not given here.

What was measured:
human DOR [1] = biological target: T1, human DOR (Homo sapiens, UniProt P41143); conditions: cited from earlier work; for Emax: Percent stimulation at 10 μM of the tested compound / Emax for the DOR (95% CI) / EC50 / Functional Activity for DOR, Emax (95% CI): [35S]GTPγS
T1 construct: expressed in transfected cells; host or cells: CHO cells (membrane preparation)

human KOR = biological target: T2, human KOR (Homo sapiens, UniProt P41145); test: Competitive binding assay, [3H]U69,593 displacement, KOR
T2 construct: expressed in transfected cells; host or cells: CHO cells (membrane preparation)
Method: (§1) The human MOR, DOR, or KOR recombinant CHO cell pellets were resuspended in 50 mM Tris–HCl buffer containing 5 mM MgCl2, 1 mM ethylene glycol bis(2-aminoethyl ether)-N,N,N,N-tetraacetic acid (EGTA), pH 7.4. The cell suspensions were disrupted by use of a glassteflon homogeniser and centrifuged at 48,000× g for 15 min. The supernatant was discarded and the pellets were resuspended in buffer at a concentration of 5 mg protein/mL and stored at −80 °C until further use.
(§2) Human MOR, DOR, or KOR recombinant CHO cell membranes were incubated for 2 h at 25 °C in 0.25 mL of the buffer containing with various concentrations of the tested compound, 2 nM [^3H] DAMGO, [^3H] […] U69,593 (PerkinElmer, Inc., MA, USA), respectively. The incubation was terminated by collecting membranes on Filtermat B filter (PerkinElmer, Inc.) using a FilterMate™ harvester (PerkinElmer, Inc.). The filters were then washed three times with 50 mM Tris–HCl buffer, pH 7.4. Then, MeltiLex scintillant (PerkinElmer, Inc.) was melted onto the dried filters. Radioactivity was determined by a MicroBeta scintillation counter (PerkinElmer, Inc.). […] Ki and 95% CI values were calculated by Prism software (version 5.0).

human MOR = biological target: T3, human MOR (Homo sapiens, UniProt P35372); test: Competitive binding assay, [3H]DAMGO displacement, MOR
T3 construct: expressed in transfected cells; host or cells: CHO cells (membrane preparation)
Method: as §1, §2

human DOR [2] = biological target: T1, human DOR; test: Competitive binding assay, [3H]DPDPE displacement, DOR
Method: as §1, §2

human DOR [3] = biological target: T1, human DOR; test: [35S]GTPγS binding assay, functional activity for the DOR; assay type: biochemical; conditions: for Emax: read-out: Functional Activity for DOR, Emax (95% CI)
Method: as §1
Human MOR, DOR, or KOR recombinant CHO cell membranes were incubated for 2 h at 25 °C in 0.25 mL of 50 mM Tris–HCl buffer containing 5 mM MgCl2, 1 mM EGTA, 100 mM NaCl, pH 7.4 with various concentrations of the tested compound, 30 μM guanosine 5-diphosphate (GDP) and 0.1 nM [^35S]GTPγS (PerkinElmer, Inc.). The incubation was terminated by collecting membranes on Filtermat B filter (PerkinElmer, Inc.) using a FilterMate™ harvester (Perkin Elmer, Inc.). The filters were then washed three times with 50 mM Tris–HCl buffer, pH 7.4. Then, MeltiLex scintillant (PerkinElmer, Inc.) was melted onto the dried filters. Radioactivity was determined by a MicroBeta scintillation counter (PerkinElmer, Inc.). EC50, Emax, and 95% CI values were calculated by Prism software (version 5.0). Nonspecific binding was measured in the presence of 10 μM unlabeled GTPγS (PerkinElmer, Inc.).

human DOR [4] = biological target: T1, human DOR; conditions: cited from earlier work
[5] = read-out: Ki for the DOR (95% CI)
[6] = read-out: EC50 for the DOR (95% CI)
[7] = read-out: Binding Affinity, Ki (DOR) (95% CI), [3H]DPDPE, CHO cells expressing human DOR
[8] = read-out: Functional Activity for DOR, EC50 (95% CI), human DOR recombinant CHO cell membrane

| Structure (SMILES) | Ki (human KOR) [nM] | Ki (human MOR) [nM] | Ki (human DOR [2]) [nM] | Functional activity for the DOR, in words (human DOR [3]; [35S]GTPγS) | Emax for the DOR (95% CI) (human DOR [1]) [%] | Emax (human DOR [3]) [%] | Ki (human DOR [4]; [5]) [nM] | other results |
| --- | --- | --- | --- | --- | --- | --- | --- | --- |
| Oc1ccc2c3c1O[C@H]1c4[nH]c5ccccc5c4C[C@@]4(O)[C@@H](C2)N(CC2CC2)CC[C@]314 [NTI, naltrindole] |  |  |  |  |  |  |  | Emax: Percent stimulation at 10 μM of the tested compound (human DOR [1]): 7.50 ^h %; Functional activity for the DOR, in words (human DOR [1]): neutral antagonist |
| O=S(=O)(N1CCC23c4c5ccc(O)c4OC2c2[nH]c4ccccc4c2CC3(O)C1C5)C(F)(F)F (stereo not drawn) [9b, 6,7-Didehydro-4,5α-epoxy-17-(1,1,1-trifluoromethylsulfonyl)indolo[2′,3′:6,7]morphinan-3,14β-diol] | 675 | 11800 | 365 | inverse agonist activities |  |  |  | Emax at 10 µM (human DOR [3]; read-out: Emax: Percent stimulation at 10 μM of the tested compound, [35S]GTPγS, 10 μM): -36.1% |
| Oc1ccc2c3c1O[C@H]1c4[nH]c5ccccc5c4C[C@@]4(O)[C@@H](C2)N(CC(F)(F)F)CC[C@]314 [SYK-165] |  |  |  |  | −44.8 |  |  |  |
| O=S(=O)(Cc1ccccc1)N1CCC23c4c5ccc(O)c4OC2c2[nH]c4ccccc4c2CC3(O)C1C5 (stereo not drawn) [9d, 17-(Benzylsulfonyl)-6,7-didehydro-4,5α-epoxyindolo[2′,3′:6,7]morphinan-3,14β-diol] | 18800 | 5180 | 734 | DOR agonists |  | 47.1 |  | Binding affinity for the DOR, in words (human DOR [2]): low |
| O=S(=O)(c1ccccc1)N1CCC23c4c5ccc(O)c4OC2c2[nH]c4ccccc4c2CC3(O)C1C5 (stereo not drawn) [9c, 6,7-Didehydro-4,5α-epoxy-17-(phenylsulfonyl)indolo[2′,3′:6,7]morphinan-3,14β-diol] | 95.6 | 20500 | 49.6 | neutral DOR antagonist |  |  |  |  |
| CS(=O)(=O)N1CCC23c4c5ccc(O)c4OC2c2[nH]c4ccccc4c2CC3(O)C1C5 (stereo not drawn) [9a, 6,7-Didehydro-4,5α-epoxy-17-(methylsulfonyl)indolo[2′,3′:6,7]morphinan-3,14β-diol] |  | 10100 | 284 | inverse agonist activities |  | -48.8 |  | EC50 (human DOR [3]): 0.468 nM |
| CC(=O)N1CC[C@]23c4c5ccc(O)c4O[C@H]2c2[nH]c4ccccc4c2C[C@@]3(O)[C@H]1C5 [SYK-747] |  |  |  |  |  |  | 977 | Emax: Percent stimulation at 10 μM of the tested compound (human DOR [1]): −4.86% |
| O=C(c1ccccc1)N1CC[C@]23c4c5ccc(O)c4O[C@H]2c2[nH]c4ccccc4c2C[C@@]3(O)[C@H]1C5 [SYK-736] |  |  |  |  | −92.7 |  | 290 | EC50 (human DOR [1]; [6]): 322 nM |
| O=C(C1CC1)N1CC[C@]23c4c5ccc(O)c4O[C@H]2c2[nH]c4ccccc4c2C[C@@]3(O)[C@H]1C5 [SYK-623] |  |  |  |  | −91.2 |  | 17.3 | Functional activity for the DOR, in words (human DOR [1]): full inverse agonist; Functional activity for the DOR, in words (human DOR [1]; listed as SKY-623): DOR full inverse agonist with high potency; EC50 (human DOR [1]; [6]): 0.969 nM |
| Oc1ccc2c3c1O[C@H]1c4[nH]c5ccccc5c4C[C@@]4(O)[C@@H](C2)N(CCCc2ccccc2)CC[C@]314 [SYK-903] |  |  | 166 |  |  | 105 |  | EC50 (human DOR [3]): 7.37 nM |
| C=CS(=O)(=O)N1CCC23c4c5ccc(O)c4OC2c2[nH]c4ccccc4c2CC3(O)C1C5 (stereo not drawn) [9g, 6,7-Didehydro-4,5α-epoxy-17-(ethenylsulfonyl)indolo[2′,3′:6,7]morphinan-3,14β-diol] | 59100 | 3570 | 196 | inverse agonist activities; also recorded: almost full inverse agonists |  | -80.2 |  | EC50 (human DOR [3]): 7.8 nM |
| O=S(=O)(CCc1ccccc1)N1CCC23c4c5ccc(O)c4OC2c2[nH]c4ccccc4c2CC3(O)C1C5 (stereo not drawn) [9e, 6,7-Didehydro-4,5α-epoxy-17-((2-phenylethyl)sulfonyl)indolo[2′,3′:6,7]morphinan-3,14β-diol] | 17800 | 1400 | 132 | DOR agonists; also recorded: full DOR agonist activity with moderate potency |  | 88.1 |  | EC50 (human DOR [3]): 75.8 nM; Functional activity category for the DOR (by Emax) (human DOR [3]; [35S]GTPγS): full agonist |
| C=CCN1CC[C@]23c4c5ccc(O)c4O[C@H]2c2[nH]c4ccccc4c2C[C@@]3(O)[C@H]1C5 [SYK-706] |  |  |  |  |  |  |  | Ki (human DOR [4]; [7]): 0.609 nM; Functional Activity for DOR, Emax (95% CI) (human DOR [1]): 16.2%; EC50 (human DOR [1]; [8]): 101 nM |
| Oc1ccc2c3c1O[C@H]1c4[nH]c5ccccc5c4C[C@@]4(O)[C@@H](C2)N(Cc2ccccc2)CC[C@]314 [SYK-619] |  |  |  |  |  |  |  | Ki (human DOR [4]; [7]): 15.8 nM; Functional Activity for DOR, Emax (95% CI) (human DOR [1]): −56.5%; EC50 (human DOR [1]; [8]): 16.1 nM |
| O=S(=O)(C1CC1)N1CCC23c4c5ccc(O)c4OC2c2[nH]c4ccccc4c2CC3(O)C1C5 (stereo not drawn) [9f, 17-(Cyclopropylsulfonyl)-6,7-didehydro-4,5α-epoxyindolo[2′,3′:6,7]morphinan-3,14β-diol] | 13.6 | 3900 | 7.44 | inverse agonist activities; also recorded: almost full inverse agonists |  | -80.5 |  | Affinity for the DOR, fold lower than that of the mother compound NTI (human DOR [2]; Ki compared with NTI): over 10 fold; EC50 (human DOR [3]): 1.59 nM; Functional activity category for the DOR (by Emax) (human DOR [3]; [35S]GTPγS): full inverse agonist (full inverse agonist (−80% ≥ Emax)) |
| O=C(N1CC[C@]23c4c5ccc(O)c4O[C@H]2c2[nH]c4ccccc4c2C[C@@]3(O)[C@H]1C5)C(F)(F)F [SYK-752] |  |  |  |  |  |  | 7.84 | Emax: Percent stimulation at 10 μM of the tested compound (human DOR [1]): −1.10% |
| O=C(Cc1ccccc1)N1CC[C@]23c4c5ccc(O)c4O[C@H]2c2[nH]c4ccccc4c2C[C@@]3(O)[C@H]1C5 [SYK-754] |  |  |  |  | 88.5 |  | 89 | Functional activity for the DOR, in words (human DOR [1]): DOR full agonist with moderate potency; EC50 (human DOR [1]; [6]): 127 nM |
| O=C(CCc1ccccc1)N1CC[C@]23c4c5ccc(O)c4O[C@H]2c2[nH]c4ccccc4c2C[C@@]3(O)[C@H]1C5 [SYK-753] |  |  |  |  | 97.5 |  | 41.5 | EC50 (human DOR [1]; [6]): 132 nM |
| Oc1ccc2c3c1O[C@H]1c4[nH]c5ccccc5c4C[C@@]4(O)[C@@H](C2)N(CCc2ccccc2)CC[C@]314 [SYK-707] |  |  |  |  |  |  |  | Ki (human DOR [4]; [7]): 1.94 nM; Functional Activity for DOR, Emax (95% CI) (human DOR [1]): 40.3%; EC50 (human DOR [1]; [8]): 15.1 nM |
| C=CC(=O)N1CC[C@]23c4c5ccc(O)c4O[C@H]2c2[nH]c4ccccc4c2C[C@@]3(O)[C@H]1C5 [SYK-836] |  |  |  |  | −86.2 |  | 1.16 | EC50 (human DOR [1]; [6]): 1.43 nM |
